Converted amounts (≈) assume the structure as drawn. Where two headings read alike, the source gives them in different places.
Assays:
E. coli CMCC 44103 = assay: MIC by broth microdilution; conditions: Escherichia coli, CMCC44103, 24 h, read-out: Minimum inhibitory concentration E.c.^i
[1] = Solubility experiment (equilibrium solubility); conditions: thermodynamic from solid
E. coli ATCC 25922 = assay: MIC by broth microdilution; conditions: Escherichia coli, ATCC25922, 24 h, read-out: Minimum inhibitory concentration E.c.^h
A. baumannii ATCC 19606 = assay: MIC by broth microdilution; conditions: Acinetobacter baumannii, ATCC19606, 24 h, read-out: Minimum inhibitory concentration A.b.^f
[2] = tested on: Methicillin-resistant S. aureus ATCC 43300; assay: MIC by broth microdilution; conditions: Staphylococcus aureus, ATCC43300|MRSA, 24 h, read-out: Minimum inhibitory concentration MRSA^c
S. enterica ATCC14028 = assay: MIC by broth microdilution; conditions: Salmonella enterica, ATCC14028, 24 h, read-out: Minimum inhibitory concentration S.e.^g
[3] = tested on: Methicillin-resistant S. aureus ATCC 33591; assay: MIC by broth microdilution; conditions: Staphylococcus aureus, ATCC33591|MRSA, 24 h, read-out: Minimum inhibitory concentration MRSA^b
S. aureus ATCC 29213 = assay: MIC by broth microdilution; conditions: Staphylococcus aureus, ATCC29213, 24 h, read-out: Minimum inhibitory concentration S.a.^d
[4] = tested on: Methicillin-resistant S. epidermidis ATCC 51625; assay: MIC by broth microdilution; conditions: Staphylococcus epidermidis, ATCC51625|MRSE, 24 h, read-out: Minimum inhibitory concentration MRSE^e
[5] = Cell Counting Kit-8 cytotoxicity; conditions: human
[6] = tested on: methicillin-resistant Staphylococcus aureus-222; assay: MIC against clinical isolate; assay type: cell-based; conditions: MRSA / MRSE
Source text: (§1) The Specific Steps are as Follows:

[7] = tested on: multidrug-resistant Klebsiella pneumoniae-893; assay: MIC against clinical isolate; assay type: cell-based; conditions: clinical isolate MDR-KP-893
Source text: as §1

[8] = tested on: multidrug-resistant Pseudomonas aeruginosa-126; assay: MIC against clinical isolate; assay type: cell-based
Source text: as §1

[9] = tested on: carbapenem-resistant Acinetobacter baumannii-882; assay: MIC against clinical isolate; assay type: cell-based
Source text: as §1

[10] = tested on: methicillin-resistant Staphylococcus aureus-596; assay: MIC against clinical isolate; assay type: cell-based
Source text: as §1

[11] = tested on: methicillin-resistant Staphylococcus aureus-171; assay: MIC against clinical isolate; assay type: cell-based
Source text: as §1

[12] = tested on: methicillin-resistant Staphylococcus aureus-575; assay: MIC against clinical isolate; assay type: cell-based
Source text: as §1

[13] = tested on: methicillin-resistant Staphylococcus aureus-206; assay: MIC against clinical isolate; assay type: cell-based
Source text: as §1

[14] = tested on: vancomycin-resistant Enterococcus-80; assay: MIC against clinical isolate; assay type: cell-based
Source text: as §1

[15] = tested on: HepG2 cells, HEK293 cells and A549 cells; assay: Cell Counting Kit-8 cytotoxicity, all tested cells as summarised in text; conditions: at a concentration of 100 μM
[16] = tested on: Gram-positive and Gram-negative bacteria; assay: MIC, panel of TABLE 1 strains as summarised in text; conditions: comparison of MIC with positive control drugs
HepG2 cells [17] = assay: Cell Counting Kit-8 cytotoxicity; conditions: read-out: CC50 HepG2 Cells; CCK-8, 24 hours incubation
A549 cells [18] = assay: Cell Counting Kit-8 cytotoxicity; conditions: read-out: CC50 A549 Cells; CCK-8, 24 hours incubation
HEK293 cells [19] = assay: Cell Counting Kit-8 cytotoxicity; conditions: read-out: CC50 HEK293 Cells; CCK-8, 24 hours incubation
[20] = Cell Counting Kit-8 cytotoxicity; conditions: human, HepG2 cells
[21] = tested on: five clinical MRSA isolates, including MRSA-171, MRSA-575, MRSA-206, MRSA-222, and MRSA-596; assay: MIC, five clinical MRSA isolates as summarised in text; assay type: cell-based, Staphylococcus aureus; conditions: MRSA-171, MRSA-575, MRSA-206, MRSA-222, MRSA-596
Source text: as §1

physchem = conditions: thermodynamic from solid
HEK293 cells [22] = conditions: human, 24 h
A549 cells [23] = conditions: human, 24 h
HepG2 cells [24] = conditions: human, 24 h

Structure (SMILES) | MIC (E. coli CMCC 44103) [µg/mL] | MIC (E. coli ATCC 25922) [µg/mL] | MIC (A. baumannii ATCC 19606) [µg/mL] | MIC [2] [µg/mL] | MIC (S. enterica ATCC14028) [µg/mL] | MIC [3] [µg/mL] | MIC (S. aureus ATCC 29213) [µg/mL] | MIC [4] [µg/mL] | solubility (physchem) [µM] | other results
C=C[C@]1(C)C[C@@H](OC(=O)CSc2nc3cc[n+](Cc4ccc([N+](=O)[O-])cc4)cc3s2)[C@]2(C)[C@H](C)CC[C@]3(CCC(=O)[C@H]32)[C@@H](C)[C@@H]1O [Compound I-6, 5-(4-nitrobenzyl)-2-((2-(((3aR,4R,5R,7S,8S,9R,9aS,12R)-8-hydroxy-4,7,9,12-tetramethyl-3-oxo-7-vinyldecahydro-4,9a-propancyclopenta[8]cyclo-5-yl)oxy)-2-oxoethyl)thio)thiazolo[5,4-c]pyridin-5-ium] | 32 | 8 | 16 | 4 | 16 | 16 | 32 | 16 | – | solubility [1]: 887 µM
C=C[C@]1(C)C[C@@H](OC(=O)CSc2nc3cc[n+](Cc4ccc(C#N)cc4)cc3s2)[C@]2(C)[C@H](C)CC[C@]3(CCC(=O)[C@H]32)[C@@H](C)[C@@H]1O [Compound I-8, 5-(4-cyanobenzyl)-2-((2-(((3aR,4R,5R,7S,8S,9R,9aS,12R)-8-hydroxy-4,7,9,12-tetramethyl-3-oxo-7-vinyldecahydro-4,9a-propancyclopenta[8]cyclo-5-yl)oxy)-2-oxoethyl)thio)thiazolo[5,4-c]pyridin-5-ium] | 2 | 1 | 1 | 1 | 2 | 1 | 0.5 | 2 | – | CC50 at 24 h [5]: 79.2 µM; MIC ([6]; read-out: Antibacterial activity (MIC) MRSE^e): 16 µg/mL; Antibacterial activity (MIC) MDR-KP^i [7]: 16 µg/mL; MIC ([8]; read-out: Antibacterial activity (MIC) MDR-PA^h): 32 µg/mL; MIC ([9]; read-out: Antibacterial activity (MIC) CR-AB^j): 64 µg/mL; MIC ([10]; MRSA, read-out: Antibacterial activity (MIC) MRSA^f): 8 µg/mL; MIC ([11]; MRSA, read-out: Antibacterial activity (MIC) MRSA^b): 16 µg/mL; MIC ([12]; MRSA, read-out: Antibacterial activity (MIC) MRSA^c): 32 µg/mL; MIC ([13]; MRSA, read-out: Antibacterial activity (MIC) MRSA^d): 64 µg/mL; MIC ([14]; VRE, read-out: Antibacterial activity (MIC) VRE^g): 16 µg/mL; toxicity to the tested cells (in words) [15]: low toxicity; antibacterial activity compared to valnemulin and retapamulin (in words) [16]: good antibacterial activity; CC50 (HepG2 cells [17]): 78.5 µM; CC50 (A549 cells [18]): > 100 µM
C=C[C@]1(C)C[C@@H](OC(=O)CSc2nc3cc[n+](Cc4ccc(C)cc4)cc3s2)[C@]2(C)[C@H](C)CC[C@]3(CCC(=O)[C@H]32)[C@@H](C)[C@@H]1O [Compound I-9, 5-(4-methylbenzyl)-2-((2-(((3aR,4R,5R,7S,8S,9R,9aS,12R)-8-hydroxy-4,7,9,12-tetramethyl-3-oxo-7-vinyldecahydro-4,9a-propancyclopenta[8]cyclo-5-yl)oxy)-2-oxoethyl)thio)thiazolo[5,4-c]pyridin-5-ium] | 0.125 | 0.25 | 0.5 | 0.25 | 0.25 | 0.25 | 0.125 | 0.25 | 812 | CC50 (HEK293 cells [19]): 82.1 µM; MIC ([6]; clinical isolate, footnote e: MRSA-222, read-out: Antibacterial activity (MIC) MRSE^e): 4 µg/mL; Antibacterial activity (MIC) MDR-KP^i [7]: 2 µg/mL; MIC ([8]; clinical isolate MDR-PA-126, read-out: Antibacterial activity (MIC) MDR-PA^h): 8 µg/mL; MIC ([9]; clinical isolate CR-AB-882, read-out: Antibacterial activity (MIC) CR-AB^j): 4 µg/mL; MIC ([10]; clinical isolate MRSA-596, read-out: Antibacterial activity (MIC) MRSA^f): 8 µg/mL; MIC ([11]; clinical isolate MRSA-171, read-out: Antibacterial activity (MIC) MRSA^b): 8 µg/mL; MIC ([12]; clinical isolate MRSA-575, read-out: Antibacterial activity (MIC) MRSA^c): 4 µg/mL; MIC ([13]; clinical isolate MRSA-206, read-out: Antibacterial activity (MIC) MRSA^d): 2 µg/mL; MIC ([14]; clinical isolate VRE-80, read-out: Antibacterial activity (MIC) VRE^g): 8 µg/mL; toxicity to the tested cells (in words) [15]: low toxicity; antibacterial activity compared to valnemulin and retapamulin (in words) [16]: most advantageous antibacterial activity; CC50 at 24 h [20]: 66.4 µM; CC50 (A549 cells [18]): > 100 µM; MIC, range over five clinical MRSA isolates [21]: 2 to 8 µg/mL
C=C[C@]1(C)C[C@@H](OC(=O)CSc2nc3cc[n+](Cc4cc(F)ccc4C#N)cc3s2)[C@]2(C)[C@H](C)CC[C@]3(CCC(=O)[C@H]32)[C@@H](C)[C@@H]1O [Compound I-13, 5-(2-cyano-5-fluorobenzyl)-2-((2-(((3aR,4R,5R,7S,8S,9R,9aS,12R)-8-hydroxy-4,7,9,12-tetramethyl-3-oxo-7-vinyldecahydro-4,9a-propancyclopenta[8]cyclo-5-yl)oxy)-2-oxoethyl)thio)thiazolo[5,4-c]pyridin-5-ium] | 32 | 64 | 64 | 64 | 64 | 32 | 64 | 32 | 231 | –
C=C[C@]1(C)C[C@@H](OC(=O)CSc2nc3cc[n+](Cc4cc(OC)cc(OC)c4)cc3s2)[C@]2(C)[C@H](C)CC[C@]3(CCC(=O)[C@H]32)[C@@H](C)[C@@H]1O [Compound I-14, 5-(3,5-dimethoxybenzyl)-2-((2-(((3aR,4R,5R,7S,8S,9R,9aS,12R)-8-hydroxy-4,7,9,12-tetramethyl-3-oxo-7-vinyldecahydro-4,9a-propancyclopenta[8]cyclo-5-yl)oxy)-2-oxoethyl)thio)thiazolo[5,4-c]pyridin-5-ium] | 64 | 32 | 32 | 32 | 64 | 32 | 64 | 64 | 126 | –
C=C[C@]1(C)C[C@@H](OC(=O)CS[C@@H]2C[C@H]3CC[C@@H](C2)N3C)[C@]2(C)[C@H](C)CC[C@]3(CCC(=O)[C@H]32)[C@@H](C)[C@@H]1O [Retapamulin, retapamulin, reference compound] | 32 (≈ 61.8 µM) | 32 (≈ 61.8 µM) | 4 (≈ 7.73 µM) | – | 128 (≈ 247 µM) | – | 4 (≈ 7.73 µM) | – | – | CC50 (HEK293 cells [22]): 57.5 µM; CC50 (A549 cells [23]): 71.5 µM; CC50 (HepG2 cells [24]): 61.1 µM
C=C[C@]1(C)C[C@@H](OC(=O)CSC(C)(C)CNC(=O)[C@H](N)C(C)C)[C@]2(C)[C@H](C)CC[C@]3(CCC(=O)[C@H]32)[C@@H](C)[C@@H]1O [Valnemulin, valnemulin, reference compound] | 64 (≈ 113 µM) | 16 (≈ 28.3 µM) | 2 (≈ 3.54 µM) | – | 64 (≈ 113 µM) | – | 4 (≈ 7.08 µM) | – | 386 (≈ 218 µg/mL) | CC50 (HEK293 cells [22]): 65.4 µM; CC50 (A549 cells [23]): 53.7 µM; CC50 (HepG2 cells [24]): 77.3 µM
